Laboratory results published in patent US12421211B2, “Heterocyclic compounds” (Hoffmann-La Roche Inc., priority 2021, dated 2025).
Where a name gives a salt, the structure may show the parent alone.

tested on: Acinetobacter baumannii ATCC17961; test: Antimicrobial susceptibility testing: 90% growth inhibitory concentration (IC90) determination; assay type: cell-based; conditions: Acinetobacter baumannii, ATCC17961, 16 h, 90% growth inhibitory concentration, Acinetobacter baumannii ATCC17961, Iso-Sensitest broth, OD 600 nm over 16 h; read-out: ATCC 17961 IC90
Summary of the method: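 Growth inhibition derived in log phase from OD600 kinetics (every 20 minutes, 16h, 35±2° C) of ATCC17961 in Iso-Sensitest medium, inoculum ~5×10^5 CFU/ml. Compounds tested as twofold series, 10 points (e.g. 50 to 0.097 μM final); IC90 and IC50 reported.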

SMILES	IC90 [µM]
COCCn1ncc(-c2ccc(-c3cnc(C(=O)Nc4ccc(C(=O)N5CCN(C(=O)[C@@H]6C[C@@H](O)CN6)CC5)c(C)c4)n3C)c(F)c2F)c1C [Example E8, 5-[2,3-difluoro-4-[1-(2-methoxyethyl)-5-methyl-pyrazol-4-yl]phenyl]-N-[4-[4-[(2S,4R)-4-hydroxypyrrolidine-2-carbonyl]piperazine-1-carbonyl]-3-methyl-phenyl]-1-methyl-imidazole-2-carboxamide]	0.2
Cn1c(-c2ccc(-c3c[nH]nc3C(F)(F)F)c(F)c2)cnc1C(=O)Nc1ccc(C(=O)N2CCN(C(=O)C3CCN(CC(N)=O)CC3)CC2)c(Cl)c1 [Example E12, N-[4-[4-[1-(2-amino-2-oxo-ethyl)piperidine-4-carbonyl]piperazine-1-carbonyl]-3-chloro-phenyl]-5-[3-fluoro-4-[3-(trifluoromethyl)-1H-pyrazol-4-yl]phenyl]-1-methyl-imidazole-2-carboxamide; 2,2,2-trifluoroacetic acid]	0.15
COCCn1ncc(-c2ccc(-c3cnc(C(=O)Nc4ccc(C(=O)N5CCN(C(=O)C6CCNCC6)CC5)c(Cl)c4)n3C)c(F)c2C)c1C [Example E3, N-[3-chloro-4-[4-(piperidine-4-carbonyl)piperazine-1-carbonyl]phenyl]-5-[2-fluoro-4-[1-(2-methoxyethyl)-5-methyl-pyrazol-4-yl]-3-methyl-phenyl]-1-methyl-imidazole-2-carboxamide; formic acid]	0.49
COCCn1cc(-c2ccc(-c3cnc(C(=O)Nc4ccc(C(=O)N5CCN(C(=O)[C@H]6C[C@@H](O)C[N+]6(C)C)CC5)c(Cl)c4)n3C)c(F)c2F)c(C)n1 [Example D9, N-[3-chloro-4-[4-[(2R,4R)-4-hydroxy-1,1-dimethyl-pyrrolidin-1-ium-2-carbonyl]piperazine-1-carbonyl]phenyl]-5-[2,3-difluoro-4-[1-(2-methoxyethyl)-3-methyl-pyrazol-4-yl]phenyl]-1-methyl-imidazole-2-carboxamide; formate]	0.3
COCCCn1cc(-c2ccc(-c3cnc(C(=O)Nc4ccc(C(=O)N5CCN(C(=O)[C@@H]6COCC[N+]6(C)C)CC5)c(Cl)c4)n3C)c(F)c2F)c(C)n1 [Example D13, N-[3-chloro-4-[4-[(3S)-4,4-dimethylmorpholin-4-ium-3-carbonyl]piperazine-1-carbonyl]phenyl]-5-[2,3-difluoro-4-[1-(3-methoxypropyl)-3-methyl-pyrazol-4-yl]phenyl]-1-methyl-imidazole-2-carboxamide; formate]	0.34
COCCn1ncc(-c2ccc(-c3cnc(C(=O)Nc4ccc(C(=O)N5CCN(C(=O)C6CC[N+](CC(=O)O)(CC7CNC7)CC6)CC5)c(Cl)c4)n3C)c(F)c2F)c1C (stereo not drawn) [Example B20, 2-[1-(azetidin-3-ylmethyl)-4-[4-[2-chloro-4-[[5-[2,3-difluoro-4-[1-(2-methoxyethyl)-5-methyl-pyrazol-4-yl]phenyl]-1-methyl-imidazole-2-carbonyl]amino]benzoyl]piperazine-1-carbonyl]piperidin-1-ium-1-yl]acetic acid; formic acid; formate]	0.22
COCCn1ncc(-c2ccc(-c3cnc(C(=O)Nc4ccc(C(=O)N5CCN(C(=O)C6CC[N+](CC(=O)O)(CC7CNC7)CC6)CC5)c(Cl)c4)n3C)c(Cl)c2F)c1C (stereo not drawn) [Example B37, 2-[1-(azetidin-3-ylmethyl)-4-[4-[2-chloro-4-[[5-[2-chloro-3-fluoro-4-[1-(2-methoxyethyl)-5-methyl-pyrazol-4-yl]phenyl]-1-methyl-imidazole-2-carbonyl]amino]benzoyl]piperazine-1-carbonyl]piperidin-1-ium-1-yl]acetic acid; formate]	0.2

More lines, now with the values ahead:

IC90 [µM]	SMILES
0.075	Cc1c(-c2ccc(-c3cnc(C(=O)Nc4ccc(C(=O)N5CCN(C(=O)[C@@H]6C[C@@H](O)C[N+]6(C)C)CC5)c(Cl)c4)n3C)c(F)c2F)cnn1CCOC(F)F [Example F10, N-[3-chloro-4-[4-[(2S,4R)-4-hydroxy-1,1-dimethyl-pyrrolidin-1-ium-2-carbonyl]piperazine-1-carbonyl]phenyl]-5-[4-[1-[2-(difluoro-methoxy)ethyl]-5-methyl-pyrazol-4-yl]-2,3-difluoro-phenyl]-1-methyl-imidazole-2-carboxamide; formate]
0.27	Cc1nn(CC(=O)Nc2cccnn2)cc1-c1ccc(-c2cnc(C(=O)Nc3ccc(C(=O)N4CCN(C(=O)C5CC[N+](C)(C)CC5)CC4)c(Cl)c3)n2C)c(F)c1F [Example G23, N-[3-chloro-4-[4-(1,1-dimethylpiperidin-1-ium-4-carbonyl)piperazine-1-carbonyl]phenyl]-5-[2,3-difluoro-4-[3-methyl-1-[2-oxo-2-(pyridazin-3-ylamino)ethyl]pyrazol-4-yl]phenyl]-1-methyl-imidazole-2-carboxamide; formate]
0.75	COc1ccc(-c2[nH]ncc2-c2ccc(-c3cnc(C(=O)Nc4ccc(C(=O)N5CCN(C(=O)C6CC[N+](C)(C)CC6)CC5)c(Cl)c4)n3C)c(F)n2)cc1 [Example F59, N-[3-chloro-4-[4-(1,1-dimethylpiperidin-1-ium-4-carbonyl)piperazine-1-carbonyl]phenyl]-5-[2-fluoro-6-[5-(4-methoxyphenyl)-1H-pyrazol-4-yl]-3-pyridyl]-1-methyl-imidazole-2-carboxamide; formate]
0.189	Cc1c(-c2cnc(C(=O)Nc3ccc(C(=O)N4CCN(C(=O)CCC[N+](C)(CC(=O)O)CC5CNC5)CC4)c(Cl)c3)n2C)ccc(-c2cnn(CCOC(F)F)c2C)c1F (stereo not drawn) [Example N1, azetidin-3-ylmethyl-(carboxymethyl)-[4-[4-[2-chloro-4-[[5-[4-[1-[2-(difluoromethoxy)ethyl]-5-methyl-pyrazol-4-yl]-3-fluoro-2-methyl-phenyl]-1-methyl-imidazole-2-carbonyl]amino]benzoyl]piperazin-1-yl]-4-oxo-butyl]-methyl-ammonium; formic acid; formate]
0.69	Cn1c(-c2ccc(-c3cnn(CCN4CCOCC4)c3C(F)(F)F)c(F)c2F)cnc1C(=O)Nc1ccc(C(=O)N2CCN(C(=O)C3CC[N+](C)(C)CC3)CC2)c(Cl)c1 [Example F37, N-[3-chloro-4-[4-(1,1-dimethylpiperidin-1-ium-4-carbonyl)piperazine-1-carbonyl]phenyl]-5-[2,3-difluoro-4-[1-(2-morpholinoethyl)-5-(trifluoromethyl)pyrazol-4-yl]phenyl]-1-methyl-imidazole-2-carboxamide; formate]
1.1	COCCn1ncc(-c2ccc(-c3cnc(C(=O)Nc4ccc(C(=O)N5CCN(C(=O)C6CC[N+](C)(C)CC6)CC5)c(Cl)c4)n3C)c(OC)c2)c1C [Example F18, N-[3-chloro-4-[4-(1,1-dimethylpiperidin-1-ium-4-carbonyl)piperazine-1-carbonyl]phenyl]-5-[2-methoxy-4-[1-(2-methoxyethyl)-5-methyl-pyrazol-4-yl]phenyl]-1-methyl-imidazole-2-carboxamide; formate]
0.21	Cc1nn(-c2cn[nH]c2)cc1-c1ccc(-c2cnc(C(=O)Nc3ccc(C(=O)N4CCN(C(=O)C5CC[N+](C)(C)CC5)CC4)c(Cl)c3)n2C)c(F)c1F [Example F42, N-[3-chloro-4-[4-(1,1-dimethylpiperidin-1-ium-4-carbonyl)piperazine-1-carbonyl]phenyl]-5-[2,3-difluoro-4-[3-methyl-1-(1H-pyrazol-4-yl)pyrazol-4-yl]phenyl]-1-methyl-imidazole-2-carboxamide; formate]

same assay, conditions: Acinetobacter baumannii, ATCC17961, 16 h, read-out: ATCC 17961 IC90

SMILES	IC90 [µM]
COCCn1cc(-c2ccc(-c3cnc(C(=O)Nc4ccc(C(=O)N5CCN(C(=O)C[N+]6(C)C[C@@H](O)[C@H](O)C6)CC5)c(Cl)c4)n3C)c(F)c2F)c(C)n1 [Example C10, N-[3-chloro-4-[4-[2-[(3R,4R)-3,4-dihydroxy-1-methyl-pyrrolidin-1-ium-1-yl]acetyl]piperazine-1-carbonyl]phenyl]-5-[2,3-difluoro-4-[1-(2-methoxyethyl)-3-methyl-pyrazol-4-yl]phenyl]-1-methyl-imidazole-2-carboxamide; formate]	0.28
COCCn1ncc(-c2ccc(-c3cnc(C(=O)Nc4ccc(C(=O)N5CCN(C(=O)[C@H]6CC[N@+](CC(=O)O)(CC7CNC7)CC6)CC5)c(C)c4)n3C)c(C)c2F)c1C [Example O10, cis 2-[1-(azetidin-3-ylmethyl)-4-[4-[4-[[5-[3-fluoro-4-[1-(2-methoxyethyl)-5-methylpyrazol-4-yl]-2-methylphenyl]-1-methylimidazole-2-carbonyl]amino]-2-methylbenzoyl]piperazine-1-carbonyl]piperidin-1-ium-1-yl]acetic acid; formate]	0.231
COCCn1ncc(-c2ccc(-c3cnc(C(=O)Nc4ccc(C(=O)N5CCN(C(=O)[C@@H]6C[C@@H](O)C[N+]6(C)C)CC5)c(Cl)c4)n3C)c(C)c2F)c1C [Example O11, N-[3-chloro-4-[4-[(2S,4R)-4-hydroxy-1,1-dimethyl-pyrrolidin-1-ium-2-carbonyl]piperazine-1-carbonyl]phenyl]-5-[3-fluoro-4-[1-(2-methoxyethyl)-5-methyl-pyrazol-4-yl]-2-methyl-phenyl]-1-methyl-imidazole-2-carboxamide; 2,2,2-trifluoroacetate]	0.156
COCCn1cc(-c2ccc(-c3cnc(C(=O)Nc4ccc(C(=O)N5CCN(C(=O)[C@H]6CC[N@+](CC(=O)O)(CC7CNC7)CC6)CC5)c(C)c4)n3C)c(F)c2F)c(C)n1 [Example O8, cis 2-[1-(azetidin-3-ylmethyl)-4-[4-[4-[[5-[2,3-difluoro-4-[1-(2-methoxyethyl)-3-methylpyrazol-4-yl]phenyl]-1-methylimidazole-2-carbonyl]amino]-2-methylbenzoyl]piperazine-1-carbonyl]piperidin-1-ium-1-yl]acetic acid formate]	0.245
